According to patent US9920074B2 (ACEA BIOSCIENCES INC., priority 2013, dated 2018):
Entries after “also recorded” stand apart in the source; their conditions may differ.

Tests used:
Assay type in all cases: cell-based
[1] = target: T1, Btk (Tyr223) phosphorylation in Ramos cells (Homo sapiens, UniProt Q06187); assay: Btk Tyr223 phosphorylation inhibition, western blotting assay (Example 72)
T1 construct: endogenous in cells; host or cells: Ramos cells (ATCC)
Procedure: Ramos cell line was obtained from the American Type Culture Collection and was maintained at 37° C. with 5% CO2, in media supplemented with 10% fetal bovine serum, penicillin (100 units/mL) and streptomycin (100 μg/mL), Goat F(ab′)2 Anti-Human IgM-UNLB was obtained from SouthernBiotech.
Ramos cells were treated with compounds at indicated doses for 45 min at room temperature, followed by stimulation of 12 μg/mL of IgM for 30 min, and then lysed. Western blots were performed on the cell lysate using Phospho-Btk (Tyr223), Phospho-Btk (Tyr551), Btk, Phospho-PLCγ2 (Tyr1217), PLCγ2, Phospho-p44/42 MAPK (Erk1/2) (Thr202/Tyr204) and p44/42 MAPK (Erk1/2) antibodies (Cell Signaling Technology). The density of blotting band was acquired using ImageJ software, and the IC50 of Btk (Tyr223) phosphorylation was fitted using a non-linear regression model by GraphPad Prism version 4.0.

[2] = target: T2, Btk phosphorylation in Ramos cells (Homo sapiens, UniProt Q06187); assay: Pulse chase western blotting assay for irreversibility / binding property; conditions: 100 nM for 45 mins, monitored 4, 6 and 8 h post removal
T2 construct: endogenous in cells; host or cells: Ramos cells (ATCC)
Procedure: Ramos cells were treated with Compound I-1 at 100 nM for 45 min. Cells were then re-suspended in compound free media and stimulated with 6 μg/ml IgM at 0, 4, 6 or 8 hours after compound removal. Cells were then lysed after 30 mm IgM stimulation. West blotting analysis were then performed.
Ramos cells were treated with Compounds at 100 nM for 45 min. Cells were then re-suspended in compound free media and stimulated with 6 μg/ml anti-IgM at 0, 4, 6 or 8 hours after compound removal. Cells were then lysed after 30 mm anti-IgM stimulation. Western blotting analysis was then performed.

[3] = target: T1, Btk (Tyr223) phosphorylation in Ramos cells; assay: Western blotting assay for Btk (Example 73); conditions: 45 min, 6 μg/mL anti-IgM, read-out: Btk Inhibition
Summary of the method: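 Ramos cells pre-treated with compound for 45 min at room temperature, then stimulated with 6 μg/mL anti-IgM for 30 min and lysed. Phospho-Btk (Tyr223) measured by Western blot band densitometry; IC50 fitted by non-linear regression.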

T2 sequence (Q06187 whole entry): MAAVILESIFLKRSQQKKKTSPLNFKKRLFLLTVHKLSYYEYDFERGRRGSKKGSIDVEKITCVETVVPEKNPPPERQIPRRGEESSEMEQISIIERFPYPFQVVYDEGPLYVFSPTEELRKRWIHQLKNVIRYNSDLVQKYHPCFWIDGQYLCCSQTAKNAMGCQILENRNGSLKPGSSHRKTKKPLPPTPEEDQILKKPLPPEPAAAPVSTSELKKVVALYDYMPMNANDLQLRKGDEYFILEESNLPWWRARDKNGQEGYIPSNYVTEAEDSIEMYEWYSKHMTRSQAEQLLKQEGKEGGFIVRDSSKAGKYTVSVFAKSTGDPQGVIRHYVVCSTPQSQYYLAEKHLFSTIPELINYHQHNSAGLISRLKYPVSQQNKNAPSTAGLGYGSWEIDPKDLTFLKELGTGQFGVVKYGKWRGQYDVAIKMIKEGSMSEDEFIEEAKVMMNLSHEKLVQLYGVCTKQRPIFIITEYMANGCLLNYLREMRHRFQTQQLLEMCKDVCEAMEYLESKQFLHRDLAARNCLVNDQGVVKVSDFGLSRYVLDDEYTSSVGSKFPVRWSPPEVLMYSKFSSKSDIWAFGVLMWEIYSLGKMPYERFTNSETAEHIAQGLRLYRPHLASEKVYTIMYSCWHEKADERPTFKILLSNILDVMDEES
T1 sequence (Q06187 whole entry): as above

IC50 ([1]; Btk Tyr223 phosphorylation, 45 min, 12 μg/mL IgM, read-out: BTK Inhibition): < 10 nM
IC50 ([1]; treated 45 mins, read-out: inhibition IC50 of the phosphorylation of BTK protein): 1.1 nM
IC50 [3]: ≤ 10 nM
Compound: C=CC(=O)Nc1cccc(Oc2nc(Nc3ccc(N4CCN(C)CC4)cc3)ncc2OC)c1 [Compound I-1, N-(3-(5-methoxy-2-(4-(4-methylpiperazin-1-yl)phenylamino)pyrimidin-4-yloxy)phenyl)acrylamide]
reduction of the Btk Tyr223 phosphorylation in Ramos cells ([1]; western blot): reduction of the Btk Tyr223 phosphorylation; also recorded: dose-dependent inhibition of the BTK phosphorylation
inhibition of BTK phosphorylation after compound removal (irreversibility) [2]: remains inhibited up to 8 his; also recorded: long term effect of the inhibition was observed after compounds removal up to 8 hours; also recorded: remains inhibited up to 8 hrs; also recorded: irreversibly inhibited the BTK phosphorylation; also recorded: inhibited the Btk phosphorylation in Ramos cells after 8 hours of removal
